Patent publication US8975398B2, “NAMPT inhibitors” (AbbVie Inc., priority 2012, dated 2015)

Legend:
[1] = molecular target: NAMPT (human, recombinant, C-terminally His-tagged) (Homo sapiens, UniProt P43490); test: Time-Resolved Fluorescence Resonance Energy Transfer (TR-FRET) Binding Assay of NAMPT; conditions: 6.8 nM NAMPT, 200 nM probe, equilibrated 3 hours, absence of substrates
Method in brief: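 Probe displacement measured by TR-FRET (Ex 337 nm; 520/495 nm ratio) after 3 h room-temperature equilibration of compound with 6.8 nM His-tagged human NAMPT, 1 nM Tb-anti-His antibody and 200 nM Oregon Green 488 nicotinamide-site probe, pH 7.5 HEPES buffer, 2% DMSO. Control-normalized data fit four-parameter logistic for IC50.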

NAMPT = NAMPT (Homo sapiens, UniProt P43490); test: Time-Resolved Fluorescence Resonance Energy Transfer (TR-FRET) Binding Assay of NAMPT with PRPP; conditions: 2 nM NAMPT, 2 nM probe, 200 uM PRPP and 2.5 mM ATP, equilibrated 16 hours
Method in brief: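 Binding measured by TR-FRET after a 16-hour equilibration meant to permit enzymatic compound modification. Substrates present at 200 uM PRPP and 2.5 mM ATP, with 2 nM enzyme, 2 nM probe, 1 nM Tb-anti-His antibody and 2% DMSO final.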

NAMPT (human, recombinant, C-terminally His-tagged), sequence (P43490 whole entry): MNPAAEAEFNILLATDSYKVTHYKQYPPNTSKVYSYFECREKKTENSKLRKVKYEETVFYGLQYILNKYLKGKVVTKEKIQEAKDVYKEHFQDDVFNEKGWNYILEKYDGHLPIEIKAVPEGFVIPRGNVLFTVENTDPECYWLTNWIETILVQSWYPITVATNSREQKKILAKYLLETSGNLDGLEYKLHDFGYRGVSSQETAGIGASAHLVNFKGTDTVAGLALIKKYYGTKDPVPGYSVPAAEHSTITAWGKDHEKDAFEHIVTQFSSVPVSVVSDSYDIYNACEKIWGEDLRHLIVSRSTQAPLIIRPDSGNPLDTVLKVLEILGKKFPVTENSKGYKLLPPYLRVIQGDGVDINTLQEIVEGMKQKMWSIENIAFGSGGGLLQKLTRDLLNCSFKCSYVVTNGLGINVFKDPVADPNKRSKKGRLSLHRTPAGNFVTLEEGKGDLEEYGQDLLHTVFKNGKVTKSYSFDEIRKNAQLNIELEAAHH
NAMPT, sequence (P43490 whole entry): as above

CC1CC1C(=O)N1CC(Oc2ccc(NC(=O)C3CN(c4ccnnc4)C3)cc2)C1 (stereo not shown) [Example 257, N-[4-({1-[(2-methylcyclopropyl)carbonyl]azetidin-3-yl}oxy)phenyl]-1-(pyridazin-4-yl)azetidine-3-carboxamide] gave an IC50 [1] of 64.7 nM and an IC50 (NAMPT) of 41.9 nM.

In the case of O=C(Nc1ccc(C2CCN(C(=O)[C@@H]3CCCO3)CC2)cc1)C1CN(c2cccnc2)C1 [Example 10, 1-(pyridin-3-yl)-N-(4-{1-[(2S)-tetrahydrofuran-2-ylcarbonyl]piperidin-4-yl}phenyl)azetidine-3-carboxamide], the IC50 [1] is reported as 34.5 nM and the IC50 (NAMPT) is reported as 0.518 nM.

CC(C)Cn1cc(-c2ccc(C(=O)NC3CN(c4cccnn4)C3)o2)cn1 [Example 309, 5-[1-(2-methylpropyl)-1H-pyrazol-4-yl]-N-[1-(pyridazin-3-yl)azetidin-3-yl]furan-2-carboxamide] gave an IC50 [1] of 4150 nM and an IC50 (NAMPT) of 0.293 nM.

CCC(C)(C)C(=O)N1CCC(c2ccc(NC(=O)C3CN(c4cccnc4C)C3)cc2)CC1 [Example 193, N-{4-[1-(2,2-dimethylbutanoyl)piperidin-4-yl]phenyl}-1-(2-methylpyridin-3-yl)azetidine-3-carboxamide] was tested, and the IC50 [1] was 40.2 nM and the IC50 (NAMPT) was 54 nM.

CCC(=O)N1CCC(c2ccc(NC(=O)C3CN(c4cccnc4C)C3)cc2)CC1 [Example 181, 1-(2-methylpyridin-3-yl)-N-[4-(1-propanoylpiperidin-4-yl)phenyl]azetidine-3-carboxamide] gave an IC50 [1] of 284 nM and an IC50 (NAMPT) of 128 nM.

CCCCC(=O)N1CCC(c2ccc(NC(=O)C3CN(c4cccnc4)C3)cc2)CC1 [Example 98, N-[4-(1-pentanoylpiperidin-4-yl)phenyl]-1-(pyridin-3-yl)azetidine-3-carboxamide] gave an IC50 [1] of 13 nM and an IC50 (NAMPT) of 0.209 nM.

In the case of O=C(Nc1ccc(OC2CCN(C(=O)CC3CCOCC3)CC2)cc1)C1CN(c2cccnc2)C1 [Example 1, 1-(pyridin-3-yl)-N-(4-{[1-(tetrahydro-2H-pyran-4-ylacetyl)piperidin-4-yl]oxy}phenyl)azetidine-3-carboxamide], the IC50 [1] is reported as 120 nM and the IC50 (NAMPT) is reported as 0.386 nM.

O=C(Nc1ccc(C2CCN(C(=O)CC3CCCCC3)CC2)cc1)C1CN(c2cccnn2)C1 [Example 340, N-{4-[1-(cyclohexylacetyl)piperidin-4-yl]phenyl}-1-(pyridazin-3-yl)azetidine-3-carboxamide] showed an IC50 [1] of 17.6 nM and an IC50 (NAMPT) of 0.722 nM.

With O=C(Nc1ccc(OC2CCN(C(=O)C3CC3)CC2)cc1)C1CN(c2cccnn2)C1 [Example 251, N-(4-{[1-(cyclopropylcarbonyl)piperidin-4-yl]oxy}phenyl)-1-(pyridazin-3-yl)azetidine-3-carboxamide] the IC50 [1] was 230 nM and the IC50 (NAMPT) was 0.88 nM.

With O=C(Nc1ccc(OC2CCN(C(=O)Cc3cccc(F)c3)CC2)cc1)C1CN(c2cccnn2)C1 [Example 227, N-[4-({1-[(3-fluorophenyl)acetyl]piperidin-4-yl}oxy)phenyl]-1-(pyridazin-3-yl)azetidine-3-carboxamide] the IC50 [1] was 65.9 nM and the IC50 (NAMPT) was 0.696 nM.

For O=C(Nc1ccc(OC2CN(C(=O)C3CCCC3)C2)cc1)C1CN(c2ccnnc2)C1 [Example 259, N-(4-{[1-(cyclopentylcarbonyl)azetidin-3-yl]oxy}phenyl)-1-(pyridazin-4-yl)azetidine-3-carboxamide], the IC50 [1] was 32.5 nM and the IC50 (NAMPT) was 17.7 nM.

Work on O=C(Nc1ccc(OC2CCN(C(=O)c3ccc(Cl)cc3)CC2)cc1)C1CN(c2cccnn2)C1 [Example 245, N-(4-{[1-(4-chlorobenzoyl)piperidin-4-yl]oxy}phenyl)-1-(pyridazin-3-yl)azetidine-3-carboxamide] yielded an IC50 [1] of 101 nM and an IC50 (NAMPT) of 0.707 nM.

CN1CCN(CC(=O)N2CCC(c3ccc(NC(=O)C4CN(c5cccnc5)C4)cc3)CC2)CC1 [Example 113, N-(4-{1-[(4-methylpiperazin-1-yl)acetyl]piperidin-4-yl}phenyl)-1-(pyridin-3-yl)azetidine-3-carboxamide] gave an IC50 [1] of 60.6 nM and an IC50 (NAMPT) of 0.254 nM.

With O=C(Nc1ccc(OC2CCN(C(=O)CC3CC3)CC2)cc1)C1CN(c2ccnnc2)C1 [Example 293, N-(4-{[1-(cyclopropylacetyl)piperidin-4-yl]oxy}phenyl)-1-(pyridazin-4-yl)azetidine-3-carboxamide] the IC50 [1] was 78.2 nM and the IC50 (NAMPT) was 25.3 nM.

O=C(Nc1ccc(OC2CCN(C(=O)c3cscn3)CC2)cc1)C1CN(c2cccnn2)C1 [Example 218, 1-(pyridazin-3-yl)-N-(4-{[1-(1,3-thiazol-4-ylcarbonyl)piperidin-4-yl]oxy}phenyl)azetidine-3-carboxamide] was tested, and the IC50 [1] was 265 nM and the IC50 (NAMPT) was 1.64 nM.

For COc1ccncc1N1CC(C(=O)Nc2ccc(C3CCN(C(=O)C(C)(C)O)CC3)cc2)C1 [Example 96, N-{4-[1-(2-hydroxy-2-methylpropanoyl)piperidin-4-yl]phenyl}-1-(4-methoxypyridin-3-yl)azetidine-3-carboxamide], the IC50 [1] was 115 nM and the IC50 (NAMPT) was 282 nM.

With CCCCCCC(=O)N1CCC(c2ccc(NC(=O)C3CN(c4cccnn4)C3)cc2)CC1 [Example 329, N-[4-(1-heptanoylpiperidin-4-yl)phenyl]-1-(pyridazin-3-yl)azetidine-3-carboxamide] the IC50 [1] was 24.2 nM and the IC50 (NAMPT) was 0.616 nM.

COc1ncccc1N1CC(C(=O)Nc2ccc(C3CCN(C(=O)C(C)(C)O)CC3)cc2)C1 [Example 73, N-{4-[1-(2-hydroxy-2-methylpropanoyl)piperidin-4-yl]phenyl}-1-(2-methoxypyridin-3-yl)azetidine-3-carboxamide] gave an IC50 [1] of 224 nM and an IC50 (NAMPT) of 71.1 nM.

Molecule Cc1cc(C)cc(C(=O)N2CCC(c3ccc(NC(=O)C4CN(c5cccnn5)C4)cc3)CC2)c1 [Example 361, N-{4-[1-(3,5-dimethylbenzoyl)piperidin-4-yl]phenyl}-1-(pyridazin-3-yl)azetidine-3-carboxamide] has an IC50 [1] of 37.4 nM and an IC50 (NAMPT) of 0.988 nM.

With CCC(C)CC(=O)N1CCC(c2ccc(NC(=O)C3CN(c4cccnc4C)C3)cc2)CC1 (stereo not shown) [Example 160, N-{4-[1-(3-methylpentanoyl)piperidin-4-yl]phenyl}-1-(2-methylpyridin-3-yl)azetidine-3-carboxamide] the IC50 [1] was 74.5 nM and the IC50 (NAMPT) was 70.8 nM.

CC(=O)N1CCC(Oc2ccc(NC(=O)C3CN(c4cccnn4)C3)cc2)CC1 [Example 244, -{4-[(1-acetylpiperidin-4-yl)oxy]phenyl}-1-(pyridazin-3-yl)azetidine-3-carboxamide] showed an IC50 [1] of 449 nM and an IC50 (NAMPT) of 0.916 nM.

O=C(Nc1ccc(C2CCN(C(=O)c3cccc(Cl)c3)CC2)cc1)C1CN(c2cccnn2)C1 [Example 351, N-{4-[1-(3-chlorobenzoyl)piperidin-4-yl]phenyl}-1-(pyridazin-3-yl)azetidine-3-carboxamide] was tested, and the IC50 [1] was 37.1 nM and the IC50 (NAMPT) was 0.765 nM.

With O=C(Nc1ccc(C2CCN(C(=O)C3CCCC3)CC2)cc1)C1CN(c2cccnc2)C1 [Example 138, N-{4-[1-(cyclopentylcarbonyl)piperidin-4-yl]phenyl}-1-(pyridin-3-yl)azetidine-3-carboxamide] the IC50 [1] was 21.8 nM and the IC50 (NAMPT) was 0.445 nM.

Work on CC[C@H](C)C(=O)N1CCC(Oc2ccc(NC(=O)C3CN(c4ccnnc4)C3)cc2)CC1 [Example 307, N-[4-({1-[(2S)-2-methylbutanoyl]piperidin-4-yl}oxy)phenyl]-1-(pyridazin-4-yl)azetidine-3-carboxamide] yielded an IC50 [1] of 37.7 nM and an IC50 (NAMPT) of 15.9 nM.

For CCC(C)(C)C(=O)N1CCC(c2ccc(NC(=O)C3CN(c4cccnc4)C3)cc2)CC1 [Example 133, N-{4-[1-(2,2-dimethylbutanoyl)piperidin-4-yl]phenyl}-1-(pyridin-3-yl)azetidine-3-carboxamide], the IC50 [1] was 12 nM and the IC50 (NAMPT) was 0.626 nM.

With CC(C)Cn1cc(-c2ccc(C(=O)NC3CN(c4cccnn4)C3)s2)cn1 [Example 315, 5-[1-(2-methylpropyl)-1H-pyrazol-4-yl]-N-[1-(pyridazin-3-yl)azetidin-3-yl]thiophene-2-carboxamide] the IC50 [1] was 469 nM and the IC50 (NAMPT) was 0.641 nM.

For CCC(C)CC(=O)N1CCC(c2ccc(NC(=O)C3CN(c4cccnn4)C3)cc2)CC1 (stereo not shown) [Example 323, N-{4-[1-(3-methylpentanoyl)piperidin-4-yl]phenyl}-1-(pyridazin-3-yl)azetidine-3-carboxamide], the IC50 [1] was 25.3 nM and the IC50 (NAMPT) was 0.885 nM.

O=C(Nc1ccc(OC2CCN(C(=O)[C@@H]3CCCO3)CC2)cc1)C1CN(c2cccnc2)C1 [Example 33, 1-(pyridin-3-yl)-N-[4-({1-[(2S)-tetrahydrofuran-2-ylcarbonyl]piperidin-4-yl}oxy)phenyl]azetidine-3-carboxamide] was tested, and the IC50 [1] was 109 nM and the IC50 (NAMPT) was 0.342 nM.

O=C(Nc1ccc(OC2CCN(C(=O)c3cc(F)cc(F)c3)CC2)cc1)C1CN(c2cccnn2)C1 [Example 243, N-(4-{[1-(3,5-difluorobenzoyl)piperidin-4-yl]oxy}phenyl)-1-(pyridazin-3-yl)azetidine-3-carboxamide] gave an IC50 [1] of 269 nM and an IC50 (NAMPT) of 0.97 nM.

In the case of Cc1ncccc1N1CC(C(=O)Nc2ccc(C3CCN(C(=O)CCC(F)(F)F)CC3)cc2)C1 [Example 172, 1-(2-methylpyridin-3-yl)-N-{4-[1-(4,4,4-trifluorobutanoyl)piperidin-4-yl]phenyl}azetidine-3-carboxamide], the IC50 [1] is reported as 286 nM and the IC50 (NAMPT) is reported as 170 nM.

For CCOCCC(=O)N1CCC(c2ccc(NC(=O)C3CN(c4cccnc4)C3)cc2)CC1 [Example 115, N-{4-[1-(3-ethoxypropanoyl)piperidin-4-yl]phenyl}-1-(pyridin-3-yl)azetidine-3-carboxamide], the IC50 [1] was 48.2 nM and the IC50 (NAMPT) was 0.178 nM.

For O=C(Nc1ccc(OC2CCN(C(=O)CN3CCOCC3)CC2)cc1)C1CN(c2cccnc2)C1 [Example 60, N-(4-{[1-(morpholin-4-ylacetyl)piperidin-4-yl]oxy}phenyl)-1-(pyridin-3-yl)azetidine-3-carboxamide], the IC50 [1] was 150 nM and the IC50 (NAMPT) was 1.01 nM.
